The values below come from US20150225454A1, “TETRABRANCHED PEPTIDES AND ANALOGUES AS A NEW CLASS OF ANTIMICROBIALS AND THEIR PREPARATION THEREOF” (priority 2012, published 2015).

For series [1], the system named is C. albicans. Kind of series: microbe, parasite or virus in culture. It is filed as cell-based. The following applies: against both C. albicans and Fusarium strains. How it is done: The yeast strains were cultivated and suspended in Sabouraud's Dextrose (SD) broth diluted at one sixth at a starting OD600=˜0.08 in a flat-bottomed microtitre plate. A serial dilution of peptide in the same broth was mixed with the inoculum to give a final peptide concentration of 0.4-22 μM. The antifungal activity was assessed by monitoring the OD600 in cycles of 30 minutes and an orbital shaking at 100 rpm using an Infinite M200 microplate reader (Tecan Group Ltd., Switzerland) for 24/48 h at 37° C. Cultures without peptides were used as positive controls and broth alone or with 22 μM peptide served as negative controls. The minimum concentration required for complete inhibition was assessed by both visible observations as well as by measuring the OD600 and taken as the MIC. Each experiment was repeated in triplicates.

Series [2] concerns fungi. The following applies: cited from earlier work.
The conditions of series [3]: temperature or pH; cited from earlier work.
The test system of series [4] is IOBA-NHC cells. It counts as cell-based, human. The following applies: 24 h. On the procedure:
IOBA-NHC cells were cultured under standard conditions (humidified atmosphere of 5% CO2 at 37° C.) in DMEM/F12 supplemented with 1 μg/ml bovine pancreas insulin, 2 ng/ml mouse epidermal growth factor, 0.1 μg/ml cholera toxin, […] hydrocortisone, 10% fetal bovine serum (FBS), 50 UI/ml penicillin, and 50 UI/ml streptomycin. Cells from passages 50-80 were used in all experiments. Every day, normal culture development was observed by phase-contrast microscopy. Cells were removed by gentle trypsin incubation at confluence and counted. They were seeded into 96 well culture plates (Corning, Schiphol-Rijk, The Netherlands) for microtitration analysis of flow cytotoxicity assay (˜10,000 cells/well). Cultures were kept at 37° C. for 24 h. Subconfluent cells (culture surface covering nearly 70%) were then exposed to various peptide concentrations (0.22-225 μM). Cytotoxicity was measured periodically using MultiTox-Fluor Multiplex assay kit (Promega, Wis., USA) by measuring the AFC fluorescence (λex=485 and λem=520 nm).

Values after ≈ are worked out from the molar mass of the structure shown. Where a SMILES comes first, the peptide text is derived from it. Bridges are numbered along the chain shown (N, C = ends). Roman numbers before positions name the chains, in order. Where no end group is shown, it is not given here. Bounds are passed on as bounds.

As to “RGRKVVRRKK [Monomer, reference compound]”, the antifungal activity entry in series [1] is given as “weak antifungal activity”.
For `Clc1ccc(COC(Cn2ccnc2)c2ccc(Cl)cc2Cl)c(Cl)c1` (centres unmarked) [Miconazole], the Activity entry in series [2] is “Broad spectrum”.
On to `CCC(C)n1ncn(-c2ccc(N3CCN(c4ccc(OCC5COC(Cn6cncn6)(c6ccc(Cl)cc6Cl)O5)cc4)CC3)cc2)c1=O` (centres unmarked) [Itraconazole], for which the Solubility in series [3] was 0.00047 mg/L (≈ 0.000666 µM).
`CC[C@H](C)C[C@H](C)CCCCCCCCC(=O)N[C@H]1C[C@@H](O)[C@@H](NCCN)NC(=O)[C@@H]2[C@@H](O)CCN2C(=O)[C@H]([C@H](O)CCN)NC(=O)[C@H]([C@H](O)[C@@H](O)c2ccc(O)cc2)NC(=O)[C@@H]2C[C@@H](O)CN2C(=O)[C@H]([C@@H](C)O)NC1=O` [Caspofungin]: the Activity result in series [2] is recorded as “Effective against Candida spp”. Besides, in series [3], the Solubility was 370 mg/L (≈ 338 µM).
As usually defined, the EC50 is the midpoint of the concentration-response curve. Lower therefore signals an effect from little substance. In the case of `C[C@H](NC(=O)[C@H](C)NC(=O)[C@H](C)NC(=O)[C@H](C)NC(=O)[C@H](CCCCN)NC(=O)[C@H](CCCNC(=N)N)NC(=O)CNC(=O)[C@@H](N)CCCNC(=N)N)C(=O)NCCCC[C@H](NC(=O)[C@H](C)NC(=O)[C@H](C)NC(=O)[C@H](C)NC(=O)[C@H](C)NC(=O)[C@H](CCCCN)NC(=O)[C@H](CCCNC(=N)N)NC(=O)CNC(=O)[C@@H](N)CCCNC(=N)N)C(=O)NCCCC[C@H](NC(=O)[C@H](CCCCNC(=O)[C@H](C)NC(=O)[C@H](C)NC(=O)[C@H](C)NC(=O)[C@H](C)NC(=O)[C@H](CCCCN)NC(=O)[C@H](CCCNC(=N)N)NC(=O)CNC(=O)[C@@H](N)CCCNC(=N)N)NC(=O)[C@H](C)NC(=O)[C@H](C)NC(=O)[C@H](C)NC(=O)[C@H](C)NC(=O)[C@H](CCCCN)NC(=O)[C@H](CCCNC(=N)N)NC(=O)CNC(=O)[C@@H](N)CCCNC(=N)N)C(=O)N[C@@H](CCCCN)C(=O)O` [[(SEQ ID NO: 18)2K]2KK] (I: H-RGRKAAAAKKK-OH / II: H-RGRKAAAAK / III: H-RGRKAAAA / IV: H-RGRKAAAA; amide I:9-IV:C, I:10-II:C, II:9-III:C; N-terminus and C-terminus assumed), the EC50 in series [4] is > 273 µM.
Still for that read-out and setting: the same measure for `C[C@H](NC(=O)CNC(=O)[C@@H](N)CCCNC(=N)N)C(=O)N[C@@H](CCCCN)C(=O)N[C@@H](C)C(=O)N[C@@H](C)C(=O)N[C@@H](CCCNC(=N)N)C(=O)N[C@@H](CCCNC(=N)N)C(=O)NCCCC[C@H](NC(=O)[C@H](CCCNC(=N)N)NC(=O)[C@H](CCCNC(=N)N)NC(=O)[C@H](C)NC(=O)[C@H](C)NC(=O)[C@H](CCCCN)NC(=O)[C@H](C)NC(=O)CNC(=O)[C@@H](N)CCCNC(=N)N)C(=O)NCCCC[C@H](NC(=O)[C@H](CCCCNC(=O)[C@H](CCCNC(=N)N)NC(=O)[C@H](CCCNC(=N)N)NC(=O)[C@H](C)NC(=O)[C@H](C)NC(=O)[C@H](CCCCN)NC(=O)[C@H](C)NC(=O)CNC(=O)[C@@H](N)CCCNC(=N)N)NC(=O)[C@H](CCCNC(=N)N)NC(=O)[C@H](CCCNC(=N)N)NC(=O)[C@H](C)NC(=O)[C@H](C)NC(=O)[C@H](CCCCN)NC(=O)[C@H](C)NC(=O)CNC(=O)[C@@H](N)CCCNC(=N)N)C(=O)N[C@@H](CCCCN)C(=O)O` [[(SEQ ID NO: 15)2K]2KK] (I: H-RGAKAARRKKK-OH / II: H-RGAKAARRK / III: H-RGAKAARR / IV: H-RGAKAARR; amide I:9-IV:C, I:10-II:C, II:9-III:C; N-terminus and C-terminus assumed): > 250 µM; for `CC(C)[C@H](NC(=O)[C@H](CCCCN)NC(=O)[C@H](CCCNC(=N)N)NC(=O)CNC(=O)[C@@H](N)CCCNC(=N)N)C(=O)N[C@H](C(=O)N[C@@H](CCCNC(=N)N)C(=O)N[C@@H](C)C(=O)NCCCC[C@H](NC(=O)[C@H](C)NC(=O)[C@H](CCCNC(=N)N)NC(=O)[C@@H](NC(=O)[C@@H](NC(=O)[C@H](CCCCN)NC(=O)[C@H](CCCNC(=N)N)NC(=O)CNC(=O)[C@@H](N)CCCNC(=N)N)C(C)C)C(C)C)C(=O)NCCCC[C@H](NC(=O)[C@H](CCCCNC(=O)[C@H](C)NC(=O)[C@H](CCCNC(=N)N)NC(=O)[C@@H](NC(=O)[C@@H](NC(=O)[C@H](CCCCN)NC(=O)[C@H](CCCNC(=N)N)NC(=O)CNC(=O)[C@@H](N)CCCNC(=N)N)C(C)C)C(C)C)NC(=O)[C@H](C)NC(=O)[C@H](CCCNC(=N)N)NC(=O)[C@@H](NC(=O)[C@@H](NC(=O)[C@H](CCCCN)NC(=O)[C@H](CCCNC(=N)N)NC(=O)CNC(=O)[C@@H](N)CCCNC(=N)N)C(C)C)C(C)C)C(=O)N[C@@H](CCCCN)C(=O)O)C(C)C` [Peptide B4010-R8A] (I: H-RGRKVVRAKKK-OH / II: H-RGRKVVRAK / III: H-RGRKVVRA / IV: H-RGRKVVRA; amide I:9-IV:C, I:10-II:C, II:9-III:C): > 237 µM.
Turning to `OC(Cn1cncn1)(Cn1cncn1)c1ccc(F)cc1F` [Fluconazole], the Activity entry in series [2] is recorded as “Broad spectrum. Less effective against”. Moreover, the Solubility in series [3] is reported as 1 mg/L (≈ 3.27 µM).
Turning to “RGRKVVRRKKKRRVVKRGR [Linear Retrodimer, reference compound]”, the antifungal activity entry in series [1] was “weak antifungal activity”.
Turning to `CC(=O)N1CCN(c2ccc(OCC3COC(Cn4ccnc4)(c4ccc(Cl)cc4Cl)O3)cc2)CC1` (centres unmarked) [Ketaconazole], in series [2], the Activity entry was “Broad spectrum”. The Solubility in series [3] was 0.09 (25° C.) mg/L.
Regarding `C[C@H](NC(=O)CNC(=O)[C@@H](N)CCCNC(=N)N)C(=O)N[C@@H](C)C(=O)N[C@@H](C)C(=O)N[C@@H](C)C(=O)N[C@@H](CCCNC(=N)N)C(=O)N[C@@H](CCCNC(=N)N)C(=O)NCCCC[C@H](NC(=O)[C@H](CCCNC(=N)N)NC(=O)[C@H](CCCNC(=N)N)NC(=O)[C@H](C)NC(=O)[C@H](C)NC(=O)[C@H](C)NC(=O)[C@H](C)NC(=O)CNC(=O)[C@@H](N)CCCNC(=N)N)C(=O)NCCCC[C@H](NC(=O)[C@H](CCCCNC(=O)[C@H](CCCNC(=N)N)NC(=O)[C@H](CCCNC(=N)N)NC(=O)[C@H](C)NC(=O)[C@H](C)NC(=O)[C@H](C)NC(=O)[C@H](C)NC(=O)CNC(=O)[C@@H](N)CCCNC(=N)N)NC(=O)[C@H](CCCNC(=N)N)NC(=O)[C@H](CCCNC(=N)N)NC(=O)[C@H](C)NC(=O)[C@H](C)NC(=O)[C@H](C)NC(=O)[C@H](C)NC(=O)CNC(=O)[C@@H](N)CCCNC(=N)N)C(=O)N[C@@H](CCCCN)C(=O)O` [[(SEQ ID NO: 17)2K]2KK] (I: H-RGAAAARRKKK-OH / II: H-RGAAAARRK / III: H-RGAAAARR / IV: H-RGAAAARR; amide I:9-IV:C, I:10-II:C, II:9-III:C; N-terminus and C-terminus assumed), the EC50 in series [4] is > 265 µM.
